Entries after “also recorded” stand apart in the source; their conditions may differ.
Columns and labels:
claudin-14 protein = assay: claudin-14 immunostaining, tight junction localization in mouse kidney sections; assay type: in vivo; details: 30 mg/kg BW−1
Experimental: (§1) For viewing claudin localization in the kidney, fresh cryostat sections (10 μm) were fixed with cold methanol at −20° C., followed by blocking with PBS containing 10% FBS, incubation with primary antibody (1:300) and FITC-labeled secondary antibody (1:200). After washing with PBS, slides were mounted with Mowiol (Calbiochem). Epifluorescence images were taken with a Nikon 80i photomicroscope equipped with a DS-QilMc digital camera. All images were converted to TIFF format and arranged using Photoshop CS4 (Adobe).
as §1, with “DS-Qi1Mc” for “DS-QilMc”

claudin-14 promoter = assay: lacZ reporter of endogenous claudin-14 promoter activity in claudin-14+/lacZ mice; assay type: in vivo, mouse
Experimental: (§2) The inventors also sought for alternative mechanisms for claudin-14 gene regulation. Because the claudin-14 KO mouse was generated with a lacZ reporter gene replacing the last exon of claudin-14 gene (including the coding region and 3″-UTR) (Ben-Yosef et al., 2003), the expression of lacZ gene would provide a faithful measurement for endogenous claudin-14 promoter activity regardless of any microRNA based regulation. The claudin-14^+/lacZ mice were treated with cinacalcet or NPS2143 as described for WT mice.
as §2, with “explored” for “also sought for”, “3′-UTR; Ben-Yosef, T.,” for “3″-UTR) (Ben-Yosef”, “2003)” for “2003),”

[1] = 1 hr renal clearance measurements (FITC-inulin), plasma and urine electrolytes; assay type: in vivo, mouse
Experimental: (§3) The method for performing renal clearance measurements in the mouse has been described by Hou et al., (2007; 2009). Mice were anesthetized by i.p. injection of Inactin (Sigma; 100 mg/kg). The jugular vein was catheterized for i.v. infusion of 0.9% saline at 2 μL/min, with 1% FITC-inulin included in the infusate. After an equilibration period of 60 min, renal clearance measurements were carried out for a 60 min period. Urine was collected under mineral oil, and 30 μL blood sample was taken at hourly intervals. Urine and plasma Ca^2+ and Mg^2+ concentrations were measured by atomic flame absorption spectrophotometer (PerkinElmer). Urine and plasma FITC-inulin levels were measured in 100 mM HEPES buffer (pH7.0) with fluorescence spectrophotometer (BioTek). The fractional excretion of electrolytes was calculated using the following equation FEion=V×Uion/(GFR×Pion), where GFR was calculated according to the clearance rate of FITC-inulin (GFR=V×Uinulin/Pinulin).
as §3, with “Hou, J.,” for “Hou”, “2007 and Hou, J., et al., 2009.” for “(2007; 2009).”, “(Sigma:” for “(Sigma;”, “Ca^++” for “Ca^2+”, “Mg^++” for “Mg^2+”, “(PerkinEhner).” for “(PerkinElmer).”

PTH = assay: plasma PTH levels after NPS2143 or cinacalcet; assay type: in vivo, mouse; details: for Plasma PTH level, course: 8 hrs versus 2 hr; for PTH response: cyclosporine-A pre-treated
[2] = WT + CsA (25 mg/kg BW−1 per day, 6 days), 2 hr, Veh = CsA alone
[3] = WT, 2 hr, single dose 30 mg/kg BW−1
[4] = WT, 2 hr, single dose 30 mg/kg BW−1, 30 mg/kg
[5] = WT, 2 hr, single dose 30 mg/kg BW−1, listed as Cina, 30 mg/kg
[6] = WT, 8 hr, single dose 30 mg/kg BW−1
[7] = claudin-14 KO, 2 hr, single dose 30 mg/kg BW−1
[8] = WT, at both 2 hrs and 8 hrs, 30 mg/kg BW−1, versus vehicle
[9] = WT, 2 hr, single dose 30 mg/kg BW−1, listed as NPS, 30 mg/kg

Compound	claudin-14 staining in tight junctions of TALH tubules (claudin-14 protein)	ECa [1, 2] [ug/hr · g]	FECa (fractional excretion of Ca++) [1, 2] [%]	FEMg (fractional excretion of Mg++) [1, 2] [%]	PCa (plasma Ca++ concentration) [1, 2] [mg/dL]	PMg (plasma Mg++ concentration) [1, 2] [mg/dL]	ECa [1, 3] [ug/hr · g]	EMg [1, 3] [ug/hr · g]	FEMg (fractional excretion of Mg++) [1, 3] [%]	PMg (plasma Mg++ concentration) [1, 3] [mg/dL]	FECa (fractional excretion of Ca++) [1, 4] [%]	PCa (plasma Ca++ concentration) [1, 4] [mg/dL]	ECa [1, 6] [ug/hr · g]	EMg [1, 6] [ug/hr · g]	FECa (fractional excretion of Ca++) [1, 6] [%]	FEMg (fractional excretion of Mg++) [1, 6] [%]	PCa (plasma Ca++ concentration) [1, 6] [mg/dL]	PMg (plasma Mg++ concentration) [1, 6] [mg/dL]	ECa [1, 7] [ug/hr · g]	EMg [1, 7] [ug/hr · g]	other results
C[C@@H](NCCCc1cccc(C(F)(F)F)c1)c1cccc2ccccc12 [cinacalcet]	profoundly upregulated claudin-14 protein levels in the tight junction	0.79 ± 0.07	1.93 ± 0.20	14.47 ± 1.13	8.09 ± 0.32	1.58 ± 0.04	1.33 ± 0.13	2.32 ± 0.26	28.14 ± 2.93	1.96 ± 0.04	3.82±0.52	8.44 ± 0.27	0.22 ± 0.02	1.25 ± 0.09	0.88 ± 0.14	18.80 ± 1.48	9.58 ± 0.21	2.44 ± 0.16	0.31 ± 0.03	1.12 ± 0.03	lacZ mRNA levels (claudin-14 promoter; claudin-14+/lacZ mouse kidneys, single-dose 30 mg/kg BW−1, 2 hrs): no change; β-galactosidase activity (claudin-14 promoter; isolated TALH cells of claudin-14+/lacZ mice, single-dose 30 mg/kg BW−1, 2 hrs): no change; FECa (fractional excretion of Ca++) [1, 5]: 3.82 ± 0.52 %; PCa (plasma Ca++ concentration) [1, 5]: 8.44 ± 0.27 mg/dL; FECa (fractional excretion of Ca++) [1, 7]: 1.08 ± 0.26%; FEMg (fractional excretion of Mg++) [1, 7]: 12.35 ± 2.21%; PCa (plasma Ca++ concentration) [1, 7]: 8.47 ± 0.09 mg/dL; PMg (plasma Mg++ concentration) [1, 7]: 2.64 ± 0.10 mg/dL; cinacalcet induced hypercalciuria, level higher than vehicle ([1]; cyclosporine-A pre-treated animals, 2 hrs): 1.93 fold; Plasma PTH level, course (PTH; WT): continued to suppress plasma PTH levels; plasma PTH levels (PTH; [8]): significantly affected; plasma PTH levels (PTH; claudin-14 KO animals, 2 hrs): suppressed PTH levels; PTH response (PTH; 2 hrs): intact PTH response
O=C(CCCCCCC(=O)Nc1ccccc1)NO [SAHA, Suberanilohydroxamic acid]	–	–	–	–	–	–	–	–	–	–	–	–	–	–	–	–	–	–	–	–	lacZ mRNA levels (claudin-14 promoter; 25 mg/kg BW−1, 4 hrs): no significant change
CC(C)(Cc1ccc2ccccc2c1)NC[C@@H](O)COc1cccc(Cl)c1C#N [NPS2143]	reduced the staining signal for claudin-14 to punctate foci; also recorded: reduced the staining signal for claudin-14 to punctuate foci	0.38 ± 0.02	0.95 ± 0.14	11.96 ± 2.27	10.50 ± 0.18	1.67 ± 0.02	0.06 ± 0.01	1.04 ± 0.06	7.59 ± 0.32	2.74 ± 0.15	0.09±0.01	11.15 ± 0.21	0.25 ± 0.04	1.41 ± 0.18	0.58 ± 0.11	14.88 ± 2.63	10.63 ± 0.43	2.37 ± 0.09	0.25 ± 0.09	1.02 ± 0.12	EMg [1, 2]: 0.80 ± 0.19 ug/hr · g; FECa (fractional excretion of Ca++) [1, 9]: 0.09 ± 0.01 %; PCa (plasma Ca++ concentration) [1, 9]: 11.15 ± 0.21 mg/dL; FECa (fractional excretion of Ca++) [1, 7]: 0.74 ± 0.26%; FEMg (fractional excretion of Mg++) [1, 7]: 10.71 ± 2.16%; PCa (plasma Ca++ concentration) [1, 7]: 10.22 ± 0.30 mg/dL; PMg (plasma Mg++ concentration) [1, 7]: 2.88 ± 0.12 mg/dL; Plasma PTH level, course (PTH; WT): started to return towards baseline; plasma PTH levels (PTH; [8]): significantly affected; plasma PTH levels (PTH; claudin-14 KO animals, 2 hrs): significant increases in plasma PTH levels; PTH response (PTH; 2 hrs): intact PTH response

From US20140242609A1, “Diagnosis and treatment of kidney stones, methods and compositions therefor” (Washington University, priority 2013, published 2014)
